24 molecules from patent US20080280837A1, “Biologically Active Compounds with Anti-Angiogenic Properties” (priority 2004, published 2008) can be followed below.

For one experiment, the target named is T1, SSTR-3 (Homo sapiens, UniProt P32745).
T1 construct: expressed in transfected cells
Briefly: Radioligand binding screen against somatostatin subtype SSTR-3. The settings on record: Table 8; for pKi: read-out: Ki SSTR3. The protocol:
(§1) Receptor membrane preparations containing the desired cloned receptor (for example cloned human somatostatin receptor subtype 5, SSTR5) and radio-labeled ligand (for example 3-[^125I]iodotyrosyl^11 Somatostatin-14)) were diluted at the concentration required for testing and according to the specific parameters associated with the selected receptor-ligand combination, including receptor Bmax, ligand Kd and any other parameters necessary to optimize the experimental conditions. When tested for competition activity to the reference ligand, “compound 1” was mixed with membrane suspension and the radiolabeled reference ligand (with or without an excess of cold ligand to the receptor for determination of non-specific binding) and incubated at the temperature required by internal standard operating procedures. Following incubation, the binding reaction was stopped by the addition of ice-cold washing buffer and filtered on appropriate filters, which are then counted. Data analysis and curve-fitting was performed with XLfit (IDBS).
(§2) 10 mM solutions of test compounds in 100% DMSO were prepared. ˜160 μl was used for each dilution (20 μl/well in triplicate).
(§3) A 1.25 mM assay stock was prepared by making a 1:8 dilution of the 10 mM solution. (To 30 μL of the 10 mM solution was added 210 μL milli-Q H2O. A 1:5 dilution series in milli-Q H2O was then prepared.
(§4) In primary screening experiments compounds were tested in duplicate for a particular concentration.

In a further experiment the target is T2, SSTR-2 (Homo sapiens, UniProt P30874).
T2 construct: expressed in transfected cells
T2 sequence (P30874 whole entry): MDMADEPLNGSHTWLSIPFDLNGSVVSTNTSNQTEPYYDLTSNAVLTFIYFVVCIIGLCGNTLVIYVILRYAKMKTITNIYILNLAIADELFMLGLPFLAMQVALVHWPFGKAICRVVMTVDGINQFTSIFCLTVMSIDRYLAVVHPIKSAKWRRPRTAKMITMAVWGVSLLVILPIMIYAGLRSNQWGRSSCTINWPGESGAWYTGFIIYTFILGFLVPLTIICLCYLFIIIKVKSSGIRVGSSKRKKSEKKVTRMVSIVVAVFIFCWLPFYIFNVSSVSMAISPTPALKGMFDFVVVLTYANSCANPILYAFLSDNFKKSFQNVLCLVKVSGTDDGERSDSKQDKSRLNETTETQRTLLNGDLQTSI
Nature of the experiment: Radioligand binding screen against somatostatin subtype SSTR-2. The settings on record: Table 8; read-out: Ki SSTR2. The protocol: as §1, §2, §3, §4

Experiment [1] addresses T3, Human SST5 somatostatin receptor (SSTR5) (Homo sapiens, UniProt P35346).
T3 construct: expressed in transfected cells; host or cells: HEK-293 EBNA
Briefly: Filter plate assay for SST5 receptor, displacement of [125I]SST-14. The format is binding. The method in brief: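 HEK-293 EBNA membranes expressing human SST5 (5.5 μg) incubated 60 min at 25 °C with 4 nM [125I]SST-14 and compound in pH 7.5 Tris/EGTA/MgCl2/sucrose buffer. Bound radioactivity collected on PEI-coated glass fiber filters and counted; triplicate 1:5 dilution series from 125 μM, non-specific binding with excess cold ligand.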
Background: Displacement assays read how much labelled ligand stays bound in the presence of the test substance.

Another experiment deals with T4, SSTR-4 (Homo sapiens, UniProt P31391).
T4 construct: expressed in transfected cells
T4 sequence (P31391 whole entry): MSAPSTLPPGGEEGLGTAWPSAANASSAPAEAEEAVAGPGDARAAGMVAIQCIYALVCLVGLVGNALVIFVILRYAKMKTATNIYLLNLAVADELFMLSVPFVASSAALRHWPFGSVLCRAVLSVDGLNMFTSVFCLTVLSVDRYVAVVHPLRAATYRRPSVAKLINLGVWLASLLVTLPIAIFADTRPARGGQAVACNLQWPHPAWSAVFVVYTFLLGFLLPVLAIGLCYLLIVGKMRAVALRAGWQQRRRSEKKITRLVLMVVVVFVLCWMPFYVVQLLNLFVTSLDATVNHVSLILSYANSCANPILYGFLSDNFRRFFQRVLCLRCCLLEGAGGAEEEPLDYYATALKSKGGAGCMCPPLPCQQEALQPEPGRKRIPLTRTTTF
Briefly: Radioligand binding screen against somatostatin subtype SSTR-4 (SST4 assay). Conditions: Table 8; read-out: Ki SSTR4. The protocol:
as §1, §2, §3
Assays were performed in triplicate at each concentration within the 1:5 dilution series: 250 μM, 50 μM, 10 μM, […], 0.4 μM, 0.08 μM, 0.016 μM, 0.0032 μM, etc. (for SST4 assay) and 125 μM, 10 μM, 2 μM, 1 μM, 0.5 μM, etc (for SST5 assay).
as §4

In experiment [2] the test system is Human Umbilical Vein Endothelial Cells (HUVEC). Nature of the experiment: Endothelial cell proliferation assay (MTS). Conditions: 48 hrs. The format is cell-based. The protocol: Human Umbilical Vein Endothelial Cells (HUVEC from Clonetics) were plated in 96 well plates at 1000 cell per well in EGM-2 medium (Clonetics). Cells were grown overnight at 37° C. in 5% CO2. Fresh EGM-2 medium containing compound at the desired concentration was added to the wells and the cells allowed to grow for a further 48 hrs. A MTS (Promega) colorimetric assay was performed after 48 hrs to determine cell growth according to the manufacturers instructions. Results are presented in terms of percentage growth.

The next experiment concerns the target T5, SSTR-1 (Homo sapiens, UniProt P30872).
T5 construct: expressed in transfected cells
Briefly: Radioligand binding screen against somatostatin subtype SSTR-1. Conditions: Table 8; read-out: Ki SSTR1. The protocol:
as §1, §2, §3, §4

The test system of experiment [3] is chicken embryo chorioallantoic membrane (CAM) vasculature. Briefly: Early chicken embryo chorioallantoic membrane (earlyCAM) assay. The format is in vivo. Conditions: dose of 10 nmol. The protocol: Vein diameter was included as a measure of vessel growth. Where there was more than one major vein branch, the diameters of both were added together to give a total vein diameter. In the control CAM there were two well developed vein branches of similar diameter. In contrast, in the treated CAM there was a single major vein branch. Total vein diameter is 239 pixels in the control CAM, and only 107 pixels in the treated CAM.
When “compound 1” was applied to the CAM, there were dose responsive reductions in CAM growth and vasculature. The effects on CAM growth and vessel parameters were expressed as pixel measures (Table 1) and also as a percentage of the vehicle treated control group (FIG. 1). Vein lengths were reduced at all dose levels of “compound 1”, both in pixel and percentage terms, with a reduction to 67% of control at 5 nmol (p<0.05). […] When artery and vein lengths were combined to give total vessel length there was a significant reduction at the 5 nmol level (FIG. 1; p<0.05). A strong trend to reduced CAM growth with increasing doses of “compound 1” was also present.

pIC50, pKi: −log10 of the molar value.

T1 sequence (P32745 whole entry): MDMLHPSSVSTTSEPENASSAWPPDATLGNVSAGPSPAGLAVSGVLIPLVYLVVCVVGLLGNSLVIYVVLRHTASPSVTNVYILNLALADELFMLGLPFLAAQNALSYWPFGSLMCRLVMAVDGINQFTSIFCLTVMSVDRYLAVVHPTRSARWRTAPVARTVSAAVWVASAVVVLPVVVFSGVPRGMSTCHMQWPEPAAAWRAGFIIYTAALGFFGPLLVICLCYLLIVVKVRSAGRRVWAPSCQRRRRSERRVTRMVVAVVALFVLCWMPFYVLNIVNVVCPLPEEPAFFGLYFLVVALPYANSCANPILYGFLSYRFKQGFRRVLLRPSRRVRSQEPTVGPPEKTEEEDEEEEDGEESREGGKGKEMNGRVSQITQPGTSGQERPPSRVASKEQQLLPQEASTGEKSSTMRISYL
T3 sequence (P35346 whole entry): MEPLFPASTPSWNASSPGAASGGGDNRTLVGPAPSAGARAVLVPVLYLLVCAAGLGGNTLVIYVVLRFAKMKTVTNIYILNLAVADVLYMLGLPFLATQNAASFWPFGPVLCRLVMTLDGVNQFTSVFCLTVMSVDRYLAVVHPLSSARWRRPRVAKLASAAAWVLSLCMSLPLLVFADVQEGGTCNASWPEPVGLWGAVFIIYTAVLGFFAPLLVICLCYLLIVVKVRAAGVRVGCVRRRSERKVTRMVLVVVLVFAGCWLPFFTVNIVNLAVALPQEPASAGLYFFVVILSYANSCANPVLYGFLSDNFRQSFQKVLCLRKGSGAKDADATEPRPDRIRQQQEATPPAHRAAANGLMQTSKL
T5 sequence (P30872 whole entry, species assumed): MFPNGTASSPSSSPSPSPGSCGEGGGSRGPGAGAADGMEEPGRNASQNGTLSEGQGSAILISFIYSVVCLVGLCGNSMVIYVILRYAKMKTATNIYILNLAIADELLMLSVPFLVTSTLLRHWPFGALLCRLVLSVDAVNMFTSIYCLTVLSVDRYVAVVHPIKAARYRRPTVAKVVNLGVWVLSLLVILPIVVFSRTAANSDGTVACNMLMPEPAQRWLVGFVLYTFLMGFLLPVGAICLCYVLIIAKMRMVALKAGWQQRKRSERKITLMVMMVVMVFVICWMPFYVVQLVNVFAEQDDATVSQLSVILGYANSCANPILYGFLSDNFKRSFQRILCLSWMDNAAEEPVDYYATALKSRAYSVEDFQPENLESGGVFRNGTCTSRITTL

As usually defined, the pKi is the negative decadic logarithm of the Ki, by convention in mol/L. For `COC[C@H]1OC(OCc2ccc(Cl)cc2)[C@H](NC(=O)CCCN=C(N)N)[C@H](OCc2ccc(Cl)cc2)[C@@H]1O` (stereo partly shown) [Compound 2], the negative logarithm of the Ki (pKi) at SSTR-3 is 6.69; on SSTR-2, 6.14; in experiment [1] (Table 8), 6.45; at SSTR-4 it was 5.49; at SSTR-1, 5.64. For the same molecule, the Percent cell growth at 125 µM in experiment [2] was -83%. Further, the Percent cell growth at 250 µM in experiment [2] was -91%.

One may read the pIC50 as the IC50 on a negative log10 scale, so that one unit is a factor of ten. Regarding `COC[C@H]1OC(OCc2ccc(Cl)cc2)[C@H](NC(=O)CCN)[C@H](OCc2ccc3ccccc3c2)[C@@H]1O` (stereo partly shown) [Compound 3], the pIC50 at SSTR-3 (shown where Ki could not be determined (NoModel), read-out: IC50 SSTR3 (in parentheses)) is 6.90; in experiment [1] (Table 8, shown where Ki could not be determined (NoModel), read-out: IC50 SSTR5 (in parentheses)), 6.83. In addition, the results for the pKi on SSTR-2, at SSTR-4 and at SSTR-1 were 5.91, 5.34 and 5.43, respectively. For the same molecule, the Percent cell growth at 125 µM in experiment [2] was -75%. Moreover, the Percent cell growth at 250 µM in experiment [2] was -39%.

Regarding `COC[C@H]1OC(OCc2ccc(Cl)cc2)[C@H](NC(=O)CCCN=C(N)N)[C@H](OCc2ccc3ccccc3c2)[C@@H]1O` (stereo partly shown) [Compound 4], the negative logarithm of the Ki (pKi) at SSTR-3 was 6.73; at SSTR-2, 6.07; in experiment [1] (Table 8), 6.28; at SSTR-4 it was 5.85; at SSTR-1 it was 5.80. Further, the Percent cell growth at 125 µM in experiment [2] was -98%. Further, the Percent cell growth at 250 µM in experiment [2] was -90%.

In the case of `COC[C@H]1OC(OCCc2ccccc2)[C@H](NC(=O)CCN)[C@H](OCc2ccc3ccccc3c2)[C@@H]1O` (stereo partly shown) [Compound 5], the pKi is 6.55 at SSTR-3; 5.80 on SSTR-2; 6.82 in experiment [1] (Table 8); 5.07 at SSTR-4; 5.59 on SSTR-1. In addition, the Percent cell growth at 125 µM in experiment [2] was -89%. Also, the Percent cell growth at 250 µM in experiment [2] is -57%.

Consider `COC[C@H]1OC(OCc2ccc3ccccc3c2)[C@H](NC(=O)CCN)[C@H](OCc2ccc3ccccc3c2)[C@@H]1O` (stereo partly shown) [Compound 16], for which the pKi was 6.36 at SSTR-3; 6.07 on SSTR-2; 7.07 in experiment [1] (Table 8); 5.36 at SSTR-4; 5.63 at SSTR-1.

Consider `CO[C@H]1[C@H](O)[C@@H](COCc2ccc(-c3ccccc3)cc2)OC(OCc2ccc3ccccc3c2)[C@@H]1NC(=O)CCCN` (stereo partly shown) [Compound 161], for which, in experiment [1], the “SSTR5 Inhib 0.5 uM % (inhibition of binding of SST-14 to SSTR5)” value (“SSTR5 Inhib 0.5 uM %” for short) is recorded as 51% and the “SSTR5 Inhib 10 uM % (inhibition of binding of SST-14 to SSTR5)” value (shortened to “SSTR5 Inhib 10 uM %”) is on record as 74%.

With `COC[C@H]1OC(OCc2ccccc2)[C@H](NC(=O)CNC(=N)N)[C@H](OCc2ccc3ccccc3c2)[C@@H]1O` (stereo partly shown) [Compound 162], in experiment [1], the “SSTR5 Inhib 0.5 uM %” value is recorded as 30% and the “SSTR5 Inhib 10 uM %” value was determined as 74%.

For the molecule `COC[C@H]1OC(OCc2ccccc2)[C@H](NC(=O)CCN)[C@H](OCc2ccccc2)[C@@H]1O` (stereo partly shown) [Compound 163], in experiment [1], the “SSTR5 Inhib 0.5 uM %” value is reported as 34% and the “SSTR5 Inhib 10 uM %” value was 73%.

Turning to `COC[C@H]1OC(OCc2ccc(Cl)cc2)[C@H](NC(=O)CCCN)[C@@H](OCc2ccccc2)[C@@H]1O` (stereo partly shown) [Compound 164], in experiment [1], the “SSTR5 Inhib 0.5 uM %” value came out at 39% and the “SSTR5 Inhib 10 uM %” value was found to be 73%.

In the case of `COC[C@H]1OC(OCc2ccccc2)[C@H](NC(=O)CCCNC(=N)N)[C@@H](OCc2ccc(-c3ccccc3)cc2)[C@@H]1O` (stereo partly shown) [Compound 165], in experiment [1], the “SSTR5 Inhib 0.5 uM %” value is given as 37% and the “SSTR5 Inhib 10 uM %” value was determined as 73%.

With `COC[C@H]1OC(OCCc2ccccc2)[C@H](NC(=O)CCNC(=N)N)[C@@H](OCc2ccc(Cl)cc2)[C@@H]1O` (stereo partly shown) [Compound 166], in experiment [1], the “SSTR5 Inhib 0.5 uM %” value was determined as 36% and the “SSTR5 Inhib 10 uM %” value came to 73%.

`CSC1O[C@H](COCc2ccc(Cl)cc2)[C@@H](O)[C@@H](OCc2ccc3ccccc3c2)[C@H]1NC(=O)CN` (stereo partly shown) [Compound 167]: in experiment [1], the “SSTR5 Inhib 0.5 uM %” value is given as 43% and the “SSTR5 Inhib 10 uM %” value stood at 73%.

On to `COC[C@H]1OC(OCCc2ccccc2)[C@H](NC(=O)CCCNC(=N)N)[C@@H](OCc2ccc(Cl)cc2)[C@@H]1O` (stereo partly shown) [Compound 168], for which, in experiment [1], the “SSTR5 Inhib 0.5 uM %” value was 47% and the “SSTR5 Inhib 10 uM %” value worked out at 72%.

As for `COC1C(O)C(COCc2ccc(-c3ccccc3)cc2)OC(OCc2ccc3ccccc3c2)C1NC(=O)CCNC(=N)N` (stereo not shown) [Compound 169], in experiment [1], the “SSTR5 Inhib 0.5 uM %” value is listed as 27% and the “SSTR5 Inhib 10 uM %” value was determined as 72%.

Turning to `COC[C@H]1OC(OCc2ccc3ccccc3c2)[C@H](NC(=O)CCNC(=N)N)[C@@H](OCc2ccccc2)[C@@H]1O` (stereo partly shown) [Compound 170], in experiment [1], the “SSTR5 Inhib 0.5 uM %” value is recorded as 29% and the “SSTR5 Inhib 10 uM %” value turned out to be 72%.

Consider `COC1C(O)C(COCc2ccc(-c3ccccc3)cc2)OC(OCc2ccccc2)C1NC(=O)CCCNC(=N)N` (stereo not shown) [Compound 171], for which, in experiment [1], the “SSTR5 Inhib 0.5 uM %” value worked out at 44% and the “SSTR5 Inhib 10 uM %” value turned out to be 72%.

For the molecule `COC[C@H]1OC(OCc2ccccc2)[C@H](NC(=O)CCNC(=N)N)[C@@H](OCc2ccc(-c3ccccc3)cc2)[C@@H]1O` (stereo partly shown) [Compound 172], in experiment [1], the “SSTR5 Inhib 0.5 uM %” value worked out at 21% and the “SSTR5 Inhib 10 uM %” value was 72%.

`COC1C(O)C(COCc2ccc3ccccc3c2)OC(OCc2ccc(Cl)cc2)C1NC(=O)CNC(=N)N` (stereo not shown) [Compound 173]: in experiment [1], the “SSTR5 Inhib 0.5 uM %” value is 47% and the “SSTR5 Inhib 10 uM %” value was determined as 71%.

With `COC[C@H]1OC(OCc2ccc3ccccc3c2)[C@H](NC(=O)CNC(=N)N)[C@H](OCc2ccc3ccccc3c2)[C@@H]1O` (stereo partly shown) [Compound 174], in experiment [1], the “SSTR5 Inhib 0.5 uM %” value was found to be 31% and the “SSTR5 Inhib 10 uM %” value was 71%.

Consider `COC[C@H]1OC(OCc2ccc(Cl)cc2)[C@H](NC(=O)CCCNC(=N)N)[C@H](OCc2ccccc2)[C@@H]1O` (stereo partly shown) [Compound 176], for which, in experiment [1], the “SSTR5 Inhib 0.5 uM %” value was 37% and the “SSTR5 Inhib 10 uM %” value is on record as 71%.

For `COC1C(O)C(COCc2ccc(-c3ccccc3)cc2)OC(OCc2ccc(Cl)cc2)C1NC(=O)CNC(=N)N` (stereo not shown) [Compound 177], in experiment [1], the “SSTR5 Inhib 0.5 uM %” value stood at 47% and the “SSTR5 Inhib 10 uM %” value is 71%.

With `COC[C@H]1OC(OCc2ccc(-c3ccccc3)cc2)[C@H](NC(=O)CCCNC(=N)N)[C@@H](OCc2ccc3ccccc3c2)[C@@H]1O` (stereo partly shown) [Compound 178], in experiment [1], the “SSTR5 Inhib 0.5 uM %” value is reported as 39% and the “SSTR5 Inhib 10 uM %” value was 71%.

On to `CO[C@H]1[C@H](O)[C@@H](COCc2ccc(-c3ccccc3)cc2)OC(OCc2ccc(-c3ccccc3)cc2)[C@@H]1NC(=O)CCCN` (stereo partly shown) [Compound 179], for which, in experiment [1], the “SSTR5 Inhib 0.5 uM %” value is listed as 29% and the “SSTR5 Inhib 10 uM %” value is given as 70%.

In the case of octeotride [reference compound], the “Effect on the CAM vasculature” value in experiment [3] is listed as “did not appear to have any significant effect”.
